Results from patent US20250205312A1, “Orally Available Albenatide” (AlbuNext, LLC, priority 2023, published 2025).
Where “and” joins values, the source holds several entries; their conditions need not be identical. Equal entries are not always repeated.

Test system: db/db mice
Experiment: Pharmacodynamics study: blood glucose level-time profiles after single treatment
Type: in vivo
Details: SC 0.8 mg/kg
Description: For pharmacodynamics studies, db/db mice were randomly divided into 5 groups (n=3). The test article preparation and dosing procedure followed the same way as described in PK study above. The study protocol is described in Table 6.

CJC-1134 [CJC-1134-SC]
Blood Glucose AUC, Mean (db/db mice (n=3)): 364.1 mmol·h/L | Blood Glucose Level, Mean (db/db mice (n=3), 0 h after fasting): 15.2 mmol/L | Blood Glucose Level, Mean (db/db mice (n=3), 0.25 h): 22.4 mmol/L | Blood Glucose Level, Mean (db/db mice (n=3), 0.5 h): 19.6 mmol/L | Blood Glucose Level, Mean (db/db mice (n=3), 1 h): 14.6 mmol/L | Blood Glucose Level, Mean (db/db mice (n=3), 3 h): 13.5 mmol/L | Blood Glucose Level, Mean (db/db mice (n=3), 6 h): 16.3 mmol/L | Blood Glucose Level, Mean (db/db mice (n=3), 8 h): 13.0 mmol/L | Blood Glucose Level, Mean (db/db mice (n=3), 24 h): 17.4 mmol/L | Blood Glucose Level (db/db mice, 0 h after fasting, individual mice, 0.8 mg/kg): 8.7 mmol/L and 16.4 mmol/L and 20.6 mmol/L | Blood Glucose Level (db/db mice, 0.25 h, individual mice, 0.8 mg/kg): 20.5 mmol/L and 21.2 mmol/L and 25.6 mmol/L | Blood Glucose Level (db/db mice, 0.5 h, individual mice, 0.8 mg/kg): 18.8 mmol/L and 21.0 mmol/L and 19.0 mmol/L | Blood Glucose Level (db/db mice, 1 h, individual mice, 0.8 mg/kg): 11.5 mmol/L and 16.5 mmol/L and 15.9 mmol/L | Blood Glucose Level (db/db mice, 3 h, individual mice, 0.8 mg/kg): 10.4 mmol/L and 14.0 mmol/L and 16.1 mmol/L | Blood Glucose Level (db/db mice, 6 h, individual mice, 0.8 mg/kg): 12.7 mmol/L and 18.7 mmol/L and 17.5 mmol/L | Blood Glucose Level (db/db mice, 8 h, individual mice, 0.8 mg/kg): 11.3 mmol/L and 16.3 mmol/L and 11.4 mmol/L | Blood Glucose Level (db/db mice, 24 h, individual mice, 0.8 mg/kg): 17.0 mmol/L and 16.9 mmol/L and 18.4 mmol/L | Blood Glucose AUC (db/db mice, individual mice, 0.8 mg/kg): 323.1 mmol·h/L and 399.5 mmol·h/L and 369.8 mmol·h/L
